Literature values in patent EP2566451B1, “PHARMACEUTICAL COMPOSITIONS COMPRISING CEFDITOREN PIVOXIL” (Bilgic, Mahmut, priority 2010, dated 2011).

Conditions: in water; stated in the background section, approximately

Compound: CO/N=C(\C(=O)N[C@@H]1C(=O)N2C(C(=O)OCOC(=O)C(C)(C)C)=C(/C=C\c3scnc3C)CS[C@H]12)c1csc(N)n1 [Cefditoren pivoxil, (6R,7R)-pivaloyloxymethyl 7-[(Z)-2-(2-aminothiazol-4-yl)-2-(methoxyimino)acetamido]-3-[(Z)-2-(4-methylthiazol-5-yl)vinyl]-8-oxo-5-thia-1-azabicyclo[4.2.0]oct-2-ene-2-carboxylate]
- water solubility: less than 1 mg/ml
